Target: T1, Recombinant human IKKβ (residues 1-737) (IKK2) (Homo sapiens, UniProt O14920)
T1 construct: Recombinant human IKKβ (residues 1-737) was expressed in baculovirus; GST (C); made in house
T1 sequence (O14920 1-737): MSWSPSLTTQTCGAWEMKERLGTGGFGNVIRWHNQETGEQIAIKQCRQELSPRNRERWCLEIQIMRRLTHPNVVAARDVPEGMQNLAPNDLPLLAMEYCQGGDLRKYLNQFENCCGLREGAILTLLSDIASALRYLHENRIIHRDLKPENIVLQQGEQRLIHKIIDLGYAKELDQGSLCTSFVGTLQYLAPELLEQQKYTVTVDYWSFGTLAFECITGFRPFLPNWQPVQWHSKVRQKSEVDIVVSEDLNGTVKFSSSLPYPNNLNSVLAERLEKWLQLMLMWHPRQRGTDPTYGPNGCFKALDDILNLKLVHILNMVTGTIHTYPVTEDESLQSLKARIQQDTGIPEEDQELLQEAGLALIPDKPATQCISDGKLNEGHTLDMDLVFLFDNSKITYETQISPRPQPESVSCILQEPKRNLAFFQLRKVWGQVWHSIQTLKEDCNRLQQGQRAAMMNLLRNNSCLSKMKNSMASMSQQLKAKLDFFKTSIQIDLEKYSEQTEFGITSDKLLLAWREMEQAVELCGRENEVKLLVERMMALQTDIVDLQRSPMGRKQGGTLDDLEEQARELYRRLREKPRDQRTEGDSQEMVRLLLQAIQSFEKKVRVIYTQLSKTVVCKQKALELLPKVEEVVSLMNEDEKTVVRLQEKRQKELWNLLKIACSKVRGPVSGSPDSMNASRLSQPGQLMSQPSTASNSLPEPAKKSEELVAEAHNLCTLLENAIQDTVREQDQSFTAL
Assay: IKK2 TR-FRET assay
Assay type: biochemical
Conditions: IKK2 5 nM, GST-IκBα 25 nM, ATP 1 μM, 30 minutes at room temperature, read-out: pIC50 against IKK2 (converted)
Method: Recombinant human IKKβ (residues 1-737) was expressed in baculovirus as a C-terminal GST-tagged fusion protein, and its activity was assessed using a time-resolved fluorescence resonance energy transfer (TR-FRET) assay. Briefly, IKK2 (5 nM final) diluted in assay buffer (50 mM HEPES, 10 mM MgCl2, 1 mM CHAPS pH 7.4 with 1 mM DTT and 0.01% w/v BSA) was added to wells containing various concentrations of compound or DMSO vehicle (3% final). The reaction was initiated by the addition of GST-IκBα substrate (25 nM final)/ATP (1 μM final), in a total volume of 30 μl. The reaction was incubated for 30 minutes at room temperature, then terminated by the addition of 15 μl of 50 mM EDTA. Detection reagent (15 μl) in buffer (100 mM HEPES pH 7.4, 150 mM NaCl and 0.1% w/v BSA) containing antiphosphoserine-IκBα-32/36 monoclonal antibody 12C2 (Cell Signalling Technology, Beverly Mass., USA) labelled with W-1024 europium chelate (Wallac O Y, Turku, Finland), and an APC-labelled anti-GST antibody (Prozyme, San Leandro, Calif., USA) was added and the reaction was further incubated for 60 minutes at room temperature. The degree of phosphorylation of GST-IκBα was measured using a Packard Discovery plate reader (Perkin-Elmer Life Sciences, Pangbourne, UK) as a ratio of specific 665 nm energy transfer signal to reference europium 620 nm signal.

Row | Structure (SMILES) | IC50 [µM]
1 | NC(=O)c1cc(-c2ccccc2)cc2c1cnn2C1CCCN(S(=O)(=O)c2ccccc2)C1 (stereo not shown) [Example 18, 6-phenyl-1-[1-(phenylsulfonyl)-3-piperidinyl]-1H-indazole-4-carboxamide] | > 15.8
2 | NC(=O)c1cc(-c2ccccc2)cc2c1cnn2C1CCNCC1 [Example 2, 6-phenyl-1-(4-piperidinyl)-1H-indazole-4-carboxamide] | ≤ 10
3 | CCS(=O)(=O)N1CCCC(n2ncc3c(C(N)=O)cc(-c4ccccc4)cc32)C1 (stereo not shown) [Example 14, 1-[1-(ethylsulfonyl)-3-piperidinyl]-6-phenyl-1H-indazole-4-carboxamide] | ≤ 10
4 | NC(=O)c1cc(-c2ccccc2)cc2c1cnn2C1CCN(S(=O)(=O)c2ccccc2)CC1 [Example 9, 6-phenyl-1-[1-(phenylsulfonyl)-4-piperidinyl]-1H-indazole-4-carboxamide] | ≤ 10
5 | CCC(=O)N1CCCC(n2ncc3c(C(N)=O)cc(-c4ccccc4)cc32)C1 (stereo not shown) [Example 16, 6-phenyl-1-(1-propanoyl-3-piperidinyl)-1H-indazole-4-carboxamide] | > 15.8
6 | NC(=O)c1cc(-c2ccccc2)cc2[nH]ncc12 [Example 3, 6-phenyl-1H-indazole-4-carboxamide] | ≤ 10
7 | CC(C)(C)OC(=O)N1CCC(n2ncc3c(C(N)=O)cc(-c4ccccc4)cc32)CC1 [Example 1, 1,1-dimethylethyl-4-[4-(aminocarbonyl)-6-phenyl-1H-indazol-1-yl]-1-piperidinecarboxylate] | ≤ 10
8 | NC(=O)c1cc(-c2ccccc2)cc2c1cnn2C1CCCN(S(=O)(=O)c2ccc(F)cc2)C1 (stereo not shown) [Example 19, 1-{1-[(4-fluorophenyl)sulfonyl]-3-piperidinyl}-6-phenyl-1H-indazole-4-carboxamide] | > 15.8

Second part, the compound after the results:

Row | IC50 [µM] | Structure (SMILES)
9 | ≤ 10 | Cn1cnc(S(=O)(=O)N2CCC(n3ncc4c(C(N)=O)cc(-c5ccccc5)cc43)CC2)c1 [Example 5, 1-{1-[(1-methyl-1H-imidazol-4-yl)sulfonyl]-4-piperidinyl}-6-phenyl-1H-indazole-4-carboxamide]
10 | ≤ 10 | CCC(=O)N1CCC(n2ncc3c(C(N)=O)cc(-c4ccccc4)cc32)CC1 [Example 6, 6-phenyl-1-(1-propanoyl-4-piperidinyl)-1H-indazole-4-carboxamide]
11 | > 15.8 | Cn1cnc(S(=O)(=O)N2CCCC(n3ncc4c(C(N)=O)cc(-c5ccccc5)cc43)C2)c1 (stereo not shown) [Example 15, 1-{1-[(1-methyl-1H-imidazol-4-yl)sulfonyl]-3-piperidinyl}-6-phenyl-1H-indazole-4-carboxamide]
12 | > 15.8 | NC(=O)c1cc(-c2ccccc2)cc2c1cnn2C1CCCN(C(=O)c2ccccc2)C1 (stereo not shown) [Example 17, 6-phenyl-1-[1-(phenylcarbonyl)-3-piperidinyl]-1H-indazole-4-carboxamide]
13 | ≤ 10 | NC(=O)c1cc(-c2ccccc2)cc2c1cnn2C1CCN(C(=O)c2ccccc2)CC1 [Example 8, 6-phenyl-1-[1-(phenylcarbonyl)-4-piperidinyl]-1H-indazole-4-carboxamide]
14 | ≤ 10 | NC(=O)c1cc(-c2ccccc2)cc2c1cnn2C1CCN(S(=O)(=O)c2ccc(F)cc2)CC1 [Example 4, 1-{1-[(4-fluorophenyl)sulfonyl]-4-piperidinyl}-6-phenyl-1H-indazole-4-carboxamide]
15 | ≤ 10 | CC(C)(C)OC(=O)N1CCCC(n2ncc3c(C(N)=O)cc(-c4ccccc4)cc32)C1 (stereo not shown) [Example 12, 1,1-dimethylethyl-3-[4-(aminocarbonyl)-6-phenyl-1H-indazol-1-yl]-1-piperidinecarboxylate]
16 | ≤ 10 | CCS(=O)(=O)N1CCC(n2ncc3c(C(N)=O)cc(-c4ccccc4)cc32)CC1 [Example 7, 1-[1-(ethylsulfonyl)-4-piperidinyl]-6-phenyl-1H-indazole-4-carboxamide]
